Experimental data as given in US11214803B2, “Modulators of YAP1 expression” (Ionis Pharmaceuticals, Inc., priority 2019, dated 2022).
Strand notation (5' to 3'): a small letter for the sugar, then the base; units joined by * are phosphorothioate-linked, units joined directly phosphodiester-linked; [ ] holds rarer units or linkages, { } end groups; capitals alone tell only the bases. k = constrained ethyl (cEt); [5mC] = 5-methylcytosine; d = 2'-deoxy (DNA)

Assays:
[1] = system: Yap1 mRNA; assay: Antisense inhibition of human Yap1 in A-431 cells by cEt gapmers, single dose (Example 2, RTS4814); format: cell-based
Procedure, shortened: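 Free uptake, 2,000 nM, ~48 h, A-431 at 5,000 cells/well. Readout: RT-qPCR (RTS4814), RIBOGREEN-normalized, % UTC. 16-mer 3-10-3 cEt gapmers, full PS backbone, all C as 5-methylcytosine.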

[2] = system: Yap1 mRNA; assay: Antisense inhibition of human Yap1 in A-431 cells by cEt gapmers, single dose (Example 4, RTS4814); format: cell-based
Procedure, shortened: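 A-431 cells took up 3-10-3 cEt gapmers (16-mer, full phosphorothioate, 5-methylcytosines) by free uptake at 2,000 nM for about 48 h. Yap1 mRNA was quantified by qRT-PCR, normalized to total RNA (RIBOGREEN), and reported as % of untreated control.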

[3] = system: Yap1 mRNA; assay: Dose-dependent inhibition of human Yap1 in A-431 cells (Example 7, 10,000 cells per well, RTS36584); format: cell-based; details: free uptake
Procedure, shortened: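 A-431 cells at 10,000 per well received modified oligonucleotides by free uptake at several doses. After about 48 hours, Yap1 mRNA was quantified with primer-probe set RTS36584, normalized to RIBOGREEN total RNA and expressed as % untreated control. IC50 came from linear regression on a log/linear plot.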

[4] = Tolerability in CD-1 mice, plasma chemistry markers (Example 18); format: in vivo; details: male CD-1 mice, 50 mg/kg s.c. twice a week (total of 9 treatments), day 34
Description: CD-1 mice were treated with modified oligonucleotides selected from studies described above and evaluated for changes in the levels of various plasma chemistry markers.
Groups of four male CD-1 mice at 5-6 weeks of age (obtained from Charles River) were injected subcutaneously twice a week for four weeks (for a total of 9 treatments) with 50 mg/kg of modified oligonucleotides. One group of male CD-1 mice was injected with PBS. Mice were euthanized on day 34 post start of treatment (24 hours following the final administration).

[5] = system: Yap1 mRNA; assay: Yap1 mRNA levels in SNU449 xenograft tumors (first Example 30); format: in vivo, human; details: SNU449 xenograft mice, 50 mg/kg, tumors collected day 119 post implantation, relative to PBS
Description: Modified oligonucleotides described in the studies above were tested in a hepatocellular carcinoma SNU449 xenograft tumor model. A control oligonucleotide 792169 was also tested.
Five million SNU449 cells in 30% matrigel were implanted subcutaneously into the fatpads of female NOD.Cg-Prkdcscid II2rgtmlWjl/SzJ mice (from Jackson Laboratory) at 4-6 weeks of age. 43 days post implantation (when tumors had reached approximately 100 mm^3 in size), groups of eight mice each were administered with 50 mg/kg modified oligonucleotide daily for 10 days (loading dose), following which they were administered with 50 mg/kg modified oligonucleotide four times a week for one week, following which they were dosed with 50 mg/kg modified oligonucleotide thrice weekly until the end of the study. Animals were sacrificed and tumors were collected on day 119 post implantation. Yap1 mRNA knockdown in tumors was measured by RT-qPCR as previously described using the Human Yap1 primer-probe set RTS4814. Yap1 mRNA levels were normalized to actin-beta content, as measured by primer probe set RTS5002. Results are presented in the tables below as percent control of the amount of Yap1 mRNA relative to PBS treated animals (% control).

[6] = system: ERK1/2; assay: Measurement of ERK activation (pERK/ERK) in SNU449 xenograft model with sorafenib (second Example 30); format: in vivo, human; details: SNU449 xenograft tumors, pERK/ERK relative to PBS control, oligonucleotide 50 mg/kg, sorafenib 30 mg/kg orally
Description: Five million SNU449 cells in 30% matrigel were implanted subcutaneously into the fatpads of female NOD.Cg-Prkdcscid II2rgtmlWjl/SzJ mice (from Jackson Laboratory) at 4-6 weeks of age. 43 days post implantation (when tumors had reached approximately 100 mm^3 in size), groups of eight mice each were administered with 50 mg/kg modified oligonucleotide daily for 10 days (loading dose), following which they were administered with 50 mg/kg modified oligonucleotide four times a week for one week, following which they were dosed with 50 mg/kg modified oligonucleotide thrice weekly until the end of the study.
Protein analysis was carried out using standard procedures. […] ERK protein levels were compared to internal control GAPDH. […] The secondary antibody used was donkey anti-rabbit NA934, GE Healthcare. pERK/ERK levels were calculated relative to PBS control to determine % activation of ERK1/2.

958499 (ATTAGAGTATGTGGCA; 3-10-3 cEt gapmer, further chemistry not given here) [compound 958499]
YAP1 (% UTC) ([1]; Table 32, Yap1 mRNA, percent of untreated control, 3-10-3 cEt gapmers targeting SEQ ID NO.: 1, and 2): 2 % UTC | YAP1 (% UTC) ([1]; Table 33, Yap1 mRNA, percent of untreated control, 3-10-3 cEt gapmers targeting SEQ ID NO.: 1, and 2): 4 % UTC | YAP1 (% UTC) ([1]; Yap1 mRNA as percent of untreated control, A-431 cells, 3-10-3 cEt gapmers targeting SEQ ID NO.: 1, and 2, Table 30): 1 % UTC | YAP1 (% UTC) ([1]; Yap1 mRNA as percent of untreated control, A-431 cells, 3-10-3 cEt gapmers targeting SEQ ID NO.: 1, and 2, Table 31): 1 % UTC | YAP1 (% UTC) ([2]; Yap1 mRNA remaining as percent of untreated control, 3-10-3 cEt gapmers, A-431 cells, Table 36): 1 % UTC | YAP1 (% UTC) ([2]; Yap1 mRNA remaining as percent of untreated control, 3-10-3 cEt gapmers, A-431 cells, Table 37): 2 % UTC | Yap1 mRNA, % UTC ([3]; Table 61, 15.6 nM, A-431 cells 10,000 cells per well, 48 hours): 54 % UTC | Yap1 mRNA, % UTC ([3]; Table 61, 62.5 nM, A-431 cells 10,000 cells per well, 48 hours): 12 % UTC | Yap1 mRNA, % UTC ([3]; Table 61, 4000.00 nM, A-431 cells 10,000 cells per well, 48 hours): 1 % UTC | IC50 ([3]; Table 61, A-431 cells 10,000 cells per well): < 10 nM | ALT [4]: 79 U/L | AST [4]: 88 U/L | BUN [4]: 24 mg/dL | TBIL [4]: 0.18 mg/dL

958499 (kA*kT*kT*dA*dG*dA*dG*dT*dA*dT*dG*dT*dG*kG*k[5mC]*kA) [Compound 958499]
YAP1 (% UTC) ([1]; Table 18, A-431 cells, 5,000 cells per well, free uptake, 2,000 nM modified oligonucleotide, approx. 48 hours, RTS4814, normalized to RIBOGREEN, Yap1 mRNA as percent of untreated control): 1 % UTC | YAP1 (% UTC) ([1]; Table 19, A-431 cells, 5,000 cells per well, free uptake, 2,000 nM modified oligonucleotide, approx. 48 hours, RTS4814, normalized to RIBOGREEN, Yap1 mRNA as percent of untreated control): 2 % UTC | YAP1 (% UTC) ([1]; Table 20, Yap1 mRNA, percent of untreated control, 3-10-3 cEt gapmers targeting SEQ ID NO.: 1 and 2): 1 % UTC | YAP1 (% UTC) ([1]; Table 21, Yap1 mRNA, percent of untreated control, 3-10-3 cEt gapmers targeting SEQ ID NO.: 1 and 2): 1 % UTC | YAP1 (% UTC) ([1]; Table 22, Yap1 mRNA as percent of untreated control, 3-10-3 cEt gapmers, single dose): 1 % UTC | YAP1 (% UTC) ([1]; Table 23, Yap1 mRNA as percent of untreated control, 3-10-3 cEt gapmers, single dose): 2 % UTC | YAP1 (% UTC) ([1]; Table 24, Yap1 mRNA as percent of untreated control, 3-10-3 cEt gapmers targeting SEQ ID NO.: 1, and 2): 2 % UTC | YAP1 (% UTC) ([1]; Table 25, Yap1 mRNA as percent of untreated control, 3-10-3 cEt gapmers targeting SEQ ID NO.: 1, and 2): 1 % UTC | YAP1 (% UTC) ([2]; Table 14, A-431 cells, 5,000 cells per well, free uptake, 2,000 nM, approximately 48 hours, RTS4814, normalized to RIBOGREEN, Yap1 mRNA relative to untreated control, * = targets amplicon region of primer probe set): 2 % UTC | YAP1 (% UTC) ([2]; Table 15, A-431 cells, 5,000 cells per well, free uptake, 2,000 nM, approximately 48 hours, RTS4814, normalized to RIBOGREEN, Yap1 mRNA relative to untreated control, * = targets amplicon region of primer probe set): 1 % UTC | YAP1 (% UTC) ([2]; Table 16, A-431 cells, 5,000 cells per well, free uptake, 2,000 nM, approximately 48 hours, RTS4814, normalized to RIBOGREEN, Yap1 mRNA relative to untreated control cells): 2 % UTC | YAP1 (% UTC) ([2]; Table 17, A-431 cells, 5,000 cells per well, free uptake, 2,000 nM, approximately 48 hours, RTS4814, normalized to RIBOGREEN, Yap1 mRNA relative to untreated control cells): 3 % UTC

715487 (kA*kT*kT*dA*d[5mC]*dT*dT*d[5mC]*dA*dT*dA*dG*d[5mC]*kT*kT*kA) [compound 715487]
Yap1 mRNA, % UTC ([3]; 15.6 nM, A-431 cells, 10,000 cells per well, approximately 48 hours): 77 % UTC | Yap1 mRNA, % UTC ([3]; 62.5 nM, A-431 cells, 10,000 cells per well, approximately 48 hours): 44 % UTC | Yap1 mRNA, % UTC ([3]; 4000.00 nM, A-431 cells, 10,000 cells per well, approximately 48 hours): 4 % UTC | IC50 ([3]; A-431 cells, approximately 48 hours, linear regression on log/linear plot): 100 nM

1198440 (AAGTGTATGTCAGAAG; cEt, 2'-MOE, 5-methylcytosine, phosphorothioate modifications, further chemistry not given here) [compound 1198440]
Yap1 mRNA levels in tumors [5]: 34 % control | % activation of ERK1/2 [6]: 88%

CGCCGATAAGGTACAC (cEt gapmer, phosphorothioate backbone, further chemistry not given here) [ION 792169, reference compound]
Yap1 mRNA levels in tumors [5]: 90 % control | % activation of ERK1/2 [6]: 100%

1076453 (GTAATATTGCAATCTG; 3-10-3 cEt gapmer, further chemistry not given here) [compound 1076453]
ALT [4]: 56 U/L | AST [4]: 113 U/L | BUN [4]: 20 mg/dL | TBIL [4]: 0.24 mg/dL
